# Where two headings read alike, the source gives them in different places.
# Experiments:
# Dengue-2 [1] = assay: Dengue-2 infection of Vero cells, Enzyme-linked Immunosorbent Assay; format: cell-based; conditions: for Inhibition of Dengue Infection, α-Capsid 9A7 / Inhibition of Dengue Infection, α-DEN ENV: Vero cells, 5 days
# Description: Enzyme-linked Immunosorbent Assay. Vero cells (80,000 cells/well/ml) were seeded for 24 h pre-infection in 24-well plates. Cells were exposed to Dengue-2 (derived from Vero cells) in the presence of increasing concentration of peptide (or DMSO as control). Viruses and peptide were not removed (cells were not washed) throughout the incubation. Infection was analyzed after 5 days using ELISA that measured the amounts of Dengue-2 capsid released in the supernatant of infected Vero cells.
# HCV [2] = assay: Intracellular HCV RNA by real time RT-QPCR after infection of Huh-7.5.1 cells with and without peptide; format: cell-based, Hepatitis C virus (JFH-1); conditions: working concentration 18.4-27.5 μM per peptide
# Dengue-2 [3] = assay: Dengue-2 infection of Vero cells, Intracellular FACS Assay; format: cell-based; conditions: 20 μM
# Description: Intracellular FACS Assay: Vero cells were seeded for 24 h pre-infection in 6-well plates. Cells were exposed to Dengue-2 in the presence of increasing concentrations of peptide (or DMSO as control). Viruses and peptide were washed away 2 h post-infection. Cells were taken for intracellular staining 3 days post-infection. Cells were stained with appropriate isotype control, Dengue Env, Dengue capsid or tubulin antibodies. Cells were analyzed by FACS.
# HCV [4] = assay: HCV focus reduction assay; format: cell-based, Hepatitis C virus (JFH-1); conditions: 72 h; working concentration 18.4-27.5 μM per peptide; Mock 51
# In short: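 Huh-7.5.1 cells infected with 50 ffu HCV premixed with peptide (~20 μM screen; derivatives at 18, 6 and 2 μM), 4 h adsorption at 37 °C, then washed and cultured 3 days. Foci immunostained for NS5A and counted by fluorescence microscopy. Values are % of mock with 0.5% DMSO solvent.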
# Dengue-2 [5] = assay: Dengue-2 Fluorescent Foci Assay; format: cell-based; conditions: FIG. 19; 20 μM
# Description: Fluorescent Foci Assay: Vero cells were seeded for 24 h pre-infection in 96-well plates. Cells were exposed to Dengue-2 in the presence of increasing concentrations of peptide (or DMSO as control). Viruses and peptide were washed away 2 h post-infection. Supernatants were collected every 3 days post-infection and added to fresh Vero cells for fluorescent foci assay. Newly infected Vero cells were fixed with 4% formaldehyde after 3 days. Cells were then stained with Dengue Env antibodies followed by Alexa-fluor dye conjugated secondary antibodies. Foci were counted using a fluorescent microscope.
# Fluorescent Foci Assay. Vero cells were seeded for 24 hours pre-infection in 96-well plates. Cells were exposed to Dengue-2 in the presence of increasing concentrations of peptide (or DMSO as control). Viruses and peptide were washed away 2 hours post-infection. Supernatants were collected every 3 days post-infection and added to fresh Vero cells for fluorescent foci assay. Newly infected Vero cells were fixed with 4% formaldehyde after 3 days. Cells were then stained with antibodies directed to the Dengue Envelop protein followed by Alexa-fluor dye conjugated secondary antibodies. Foci were counted using a fluorescent microscope.
# Dengue-2 [6] = assay: Dengue-2 infection of Vero cells, Enzyme-linked Immunosorbent Assay; format: cell-based; conditions: 1.25 μM, 5 days
# JFH-1 virus = assay: Interferon treatment of Huh-7.5.1 cells before JFH-1 infection; format: cell-based, Hepatitis C virus (JFH-1); conditions: 5, 50 and 500 IU/mL; Huh-7.5.1, MOI 0.3; 3 days
# Description: The viral inoculum was removed 4 hours later and the cells were further cultured with interferon for 3 days. At that time cells were harvested, RNA was isolated and analyzed by real-time RT-PCR to determine the intracellular HCV RNA levels. Bars represent intracellular HCV RNA levels expressed as a % of the levels obtained in the control infections.
# Interferon treatment. […] The inoculum was removed after 3 hours of incubation at 37° C., and fresh DMEM supplemented with the indicated doses of IFN was added to the cells. The efficiency of the infection was monitored 72 hours later by quantitative RT-PCR.
# [7] = Serum stability of L- and D-type peptides (10% FBS, 37° C., antiviral readout); format: in vitro ADME; conditions: within 1 hour
# Source text: Peptides composed of L-amino acids are susceptible to proteolysis, which could shorten their half-life and, thus, their biological activity. To examine this possibility and to determine if specific peptide-viral protein interactions mediate antiviral activity, peptide 1 was synthesized using all D-amino acids, purified to >95% homogeneity, and its antiviral activity and serum stability were compared with a similarly pure preparation of the L-type version of peptide #1. Both L- and D-type peptides were diluted 1:100 in complete growth medium (10% FBS) and mixed with an equal volume of viral supernatant.
# In addition, to compare the serum stability of the L- and D-type peptides, the diluted peptide was incubated at 37° C. for 1 hour, 2 hours and 4 hours before mixing with viral supernatant. The virus-peptide mixture was then used to infect Huh-7.5.1 cells (MOI=0.1). After adsorption for 4 hours at 37° C., the virus-peptide inoculum was removed. The cells were washed 2 times, overlaid with 120 μL fresh growth medium and incubated at 37° C. for 3 days. Cells were lysed and subjected to RNA analysis. The HCV RNA transcript level was measured by real time RT-QPCR and normalized to cellular GAPDH levels. […] Thus, in addition to low immunogenicity and possible oral bioavailability, peptides composed of D-amino acids have the potential therapeutic advantage of enhanced serum stability.
# MTT cytotoxicity assay = format: cell-based; conditions: human, hepatocyte cell lines, read-out: LD50 (MTT cytotoxicity)
# Description: Peptide cytotoxicity was measured by MTT cytotoxicity assay based on the protocol provided in the ATCC MTT assay kit (Cat #30-1010K). In brief, 5000-10,000 cells were seeded per well in a 96 well plate. Following overnight growth, 100 μL fresh medium plus 20 μL of 2-fold serially diluted peptide was added. Media without peptides was added to at least 3 wells as untreated controls. The cells were then incubated for 72 hours at 37° C., 5% CO2. After this incubation, 1/10 volume of MTT solution ([…] in PBS) was added to each well, and the cells were returned to the incubator. Two hours later, the medium was removed, 150 μL DMSO was added to dissolve the purple precipitate formazan, and the plate was shaken at 150 rpm for 10 minutes. Absorbance at 570 nm less background at 670 nm is a reliable measure of […]. Cytotoxicity (LD50) of individual peptides was defined as the peptide concentration that caused 50% cell death.
# Huh-7.5.1 cells = assay: Toxicity on Huh-7.5.1 cells incubated with peptides
# [8] = Preliminary in vivo toxicity in mice
# Description: As a preliminary measurement of the in vivo cytotoxicity of the peptides 1, 2 and 3 (see Table 4) a group of three mice (BALB/c mice, 7 weeks old, about 23 g) were each injected with 92 μg L-type peptide 1 ( ˜4 mg/kg) in 200 μL PBS (spun 14,000 rpm for 3 minutes before injection). In the control group, each of three mice was given 200 μL PBS containing 5% DMSO. The mice were monitored for acute toxicity during the first 3 hours after injection.
# No change in appearance, activity or behavior was observed. The mice were then weighed on days 0, 3, 5, 7 and 10. Peptide-injected mice gained weight at the same rate as the controls.
# HCV [9] = assay: Median effective concentration (EC50) by intracellular HCV RNA RT-QPCR; format: cell-based, Hepatitis C virus (JFH-1); conditions: Huh-7.5.1 cells, MOI 0.1
# Description: (§1) To determine the median effective concentration (EC50) of peptide #1, peptide stock solution (3.6 mM in DMSO) was serially 2-fold diluted in DMSO. An aliquot of peptide from each dilution was then diluted 1:100 in complete growth medium and mixed with equal volume of virus supernatant. The virus-peptide mixture was then used to infect Huh-7.5.1 cells (MOI=0.1). After adsorption for 4 hours at 37° C., the virus-peptide inoculum was removed. The cells were washed 2 times, overlaid with 120 μL fresh growth medium and incubated at 37° C. for 3 days. Cells were lysed and subjected to RNA analysis. The HCV RNA transcript level was measured by real time RT-QPCR and normalized to cellular GAPDH levels. The inhibition of HCV infection was calculated by comparing the intracellular HCV RNA transcript between the peptide treatment and solvent control.
# as §1, with “(EC50) of the L- and D-form” for “(EC50)”, “serially diluted” for “serially”, “2-fold” for “2-fold diluted”
compound,measurement,setting,value
LRDIWDWICEVLSDFK [^N-16mer],"Inhibition of Dengue Infection, α-Capsid 9A7",Dengue-2 [1]; 1.25 μM,12.82%
same,"Inhibition of Dengue Infection, α-Capsid 9A7",Dengue-2 [1]; 5 μM,16.01%
same,"Inhibition of Dengue Infection, α-DEN ENV",Dengue-2 [1]; 5 μM,33.64%
same,"Inhibition of Dengue Infection, α-Capsid 9A7",Dengue-2 [1]; 20 μM,82.2%
same,"Inhibition of Dengue Infection, α-DEN ENV",Dengue-2 [1]; 20 μM,74.83%
same,Inhibition of Dengue viral infection as detected by ELISA,"Dengue-2 [1]; FIG. 17, 20 μM",about 84%
same,Fold Inhibition on HCV RNA (24 h),HCV [2]; 24 h,0.7 fold
same,Fold Inhibition on HCV RNA (72 h),HCV [2]; 72 h,0.6 fold
same,Inhibition of Dengue viral infection as detected by FACS,Dengue-2 [3]; FIG. 18,about 80%
same,Focus Reduction (72 h),HCV [4],125
same,Inhibition of Dengue viral infection by immunofluorescence assay,Dengue-2 [5],about 90%
same,"Inhibition of Dengue Infection, α-DEN ENV",Dengue-2 [6],10.24%
"IFNγ: human IFNγ (PBL Biomedical Lab, Piscataway, N.J.)",Inhibition of HCV infection by interferons,JFH-1 virus,efficiently inhibit HCV infection
CC[C@H](C)[C@H](NC(=O)[C@H](CC(=O)O)NC(=O)[C@H](CCCNC(=N)N)NC(=O)[C@H](CC(C)C)NC(=O)[C@H](Cc1c[nH]c2ccccc12)NC(=O)[C@@H](N)CO)C(=O)N[C@@H](Cc1c[nH]c2ccccc12)C(=O)N[C@@H](CC(=O)O)C(=O)N[C@@H](Cc1c[nH]c2ccccc12)C(=O)N[C@H](C(=O)N[C@@H](CS)C(=O)N[C@@H](CCC(=O)O)C(=O)N[C@H](C(=O)N[C@@H](CC(C)C)C(=O)N[C@@H](CO)C(=O)N[C@@H](CC(=O)O)C(=O)N[C@@H](Cc1ccccc1)C(=O)N[C@@H](CCCCN)C(=O)O)C(C)C)[C@@H](C)CC [Peptide 1],Antiviral activity lost on incubation in 10% FBS at 37° C.,[7],approximately 95%
same,CC50 at 72 h,MTT cytotoxicity assay; with FBS,26700 nM
same,CC50 at 72 h,MTT cytotoxicity assay; without FBS,3800 nM
same,Evidence of toxicity / cytotoxicity,Huh-7.5.1 cells,without evidence of cytotoxicity
same,In vivo toxicity observation,"[8]; 92 μg ( ˜4 mg/kg) in 200 μL PBS, acute toxicity first 3 hours, weight to day 10","Peptides 1, 2 and 3 are Nontoxic in C57BL/6 Mice"
same,Weight(g) (d.0),"[8]; day 0, ˜4 mg/kg injected",22.2 g
same,Weight(g) (d.3),[8]; day 3,22.3 g
same,Weight(g) (d.5),[8]; day 5,22.8 g
same,Weight(g) (d.7),[8]; day 7,23.1 g
same,Weight(g) (d.10),[8]; day 10,23.5 g
same,% of Dead cells PI,"Dengue-2 [3]; propidium iodide staining, Vero cells 3 days post-infection",1.88%
same,EC50,"HCV [9]; FIG. 12B-C, 3 days, read-out: EC50 of the L- and D-forms of peptide 1",~1000 nM
same,EC50,"HCV [9]; peptide with virus 4 hours, HCV RNA after 3 days, listed as peptide 1, read-out: EC50 against HCV infection",300 nM
same,EC50,"HCV [9]; peptide with virus 4 hours, HCV RNA after 3 days, listed as peptide #1, read-out: EC50 against HCV infection",~300 nM
same,EC50,"HCV [9]; peptide with virus 4 hours, HCV RNA after 3 days, read-out: EC50 against HCV infection",289 nM
